Test results published in patent US20170196859A1, “PHARMACEUTICAL COMPOSITION COMPRISING PYRAZINE CARBOXAMIDE COMPOUND AS ACTIVE INGREDIENT” (Astellas Pharma Inc., priority 2014, published 2017).

How the values were obtained:
[1] = target: T1, JAK3 kinase (Homo sapiens, UniProt P52333); assay: JAK3 kinase inhibitory activity (QSS Assist JAK3_MSA kit); format: biochemical; conditions: 30 min preincubation, ATP 1 mM
T1 construct: purchased Carna Bioscience QSS Assist JAK3_MSA kit
T1 sequence (P52333 1-1124): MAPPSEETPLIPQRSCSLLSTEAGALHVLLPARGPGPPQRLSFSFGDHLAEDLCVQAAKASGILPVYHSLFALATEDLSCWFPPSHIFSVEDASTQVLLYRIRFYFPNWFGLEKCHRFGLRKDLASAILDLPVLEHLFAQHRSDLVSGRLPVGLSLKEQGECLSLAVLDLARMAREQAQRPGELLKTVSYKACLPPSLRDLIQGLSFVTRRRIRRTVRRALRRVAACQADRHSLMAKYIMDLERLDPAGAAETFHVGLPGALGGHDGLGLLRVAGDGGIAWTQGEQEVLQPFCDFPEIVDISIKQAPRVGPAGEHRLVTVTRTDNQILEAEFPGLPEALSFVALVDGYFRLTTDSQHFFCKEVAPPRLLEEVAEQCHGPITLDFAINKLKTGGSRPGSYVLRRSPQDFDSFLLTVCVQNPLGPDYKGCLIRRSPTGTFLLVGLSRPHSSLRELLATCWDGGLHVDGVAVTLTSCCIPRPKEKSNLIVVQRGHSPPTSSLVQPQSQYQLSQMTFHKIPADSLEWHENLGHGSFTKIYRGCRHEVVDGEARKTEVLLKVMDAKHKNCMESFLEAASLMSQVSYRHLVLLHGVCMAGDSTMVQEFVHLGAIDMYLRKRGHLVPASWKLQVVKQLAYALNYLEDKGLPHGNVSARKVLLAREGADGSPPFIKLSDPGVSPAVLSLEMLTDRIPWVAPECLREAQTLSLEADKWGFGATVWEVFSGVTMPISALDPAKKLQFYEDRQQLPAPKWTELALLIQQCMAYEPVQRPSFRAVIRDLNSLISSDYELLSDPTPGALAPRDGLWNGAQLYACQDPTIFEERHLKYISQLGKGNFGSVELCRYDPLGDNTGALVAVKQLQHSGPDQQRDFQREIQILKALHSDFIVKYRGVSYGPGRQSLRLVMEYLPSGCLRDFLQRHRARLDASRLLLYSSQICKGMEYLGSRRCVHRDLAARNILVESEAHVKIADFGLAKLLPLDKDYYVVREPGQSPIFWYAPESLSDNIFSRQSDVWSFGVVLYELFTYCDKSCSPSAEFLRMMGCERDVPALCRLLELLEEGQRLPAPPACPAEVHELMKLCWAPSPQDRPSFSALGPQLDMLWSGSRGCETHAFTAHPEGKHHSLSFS
Procedure: The JAK3 kinase inhibitory activity was evaluated using QSS Assist JAK3_MSA kit (Carna Bioscience).
(§1) The test compound B was dissolved in dimethyl sulfoxide (DMSO) to prepare a solution at a 100-fold concentration as compared to the test concentration. The solution was also 25-fold diluted with an appurtenant assay buffer to obtain a test compound B solution. In addition, JAK3 kinase appurtenant to the kit was used for the reaction.
(§2) 5 μL of the test compound B solution at a 4-fold concentration, prepared using the aforementioned assay buffer, and 10 μL of a JAK3 kinase solution at a 2-fold concentration were mixed within a well of a 384 well plate, and incubated at room temperature for 30 minutes. Continuously, 5 μL of a substrate peptide/ATP/MgCl2 solution at a 4-fold concentration was added thereto to perform the reaction at room temperature for 1 hour. The substrate peptide was used at a final concentration of 1 μM, ATP at a final concentration of 1 mM, and MgCl2 at a final concentration of 5 mM. Thereafter, 60 μL of an appurtenant termination buffer was added thereto to stop the reaction. The JAK3 kinase activity was calculated by quantifying a product conversion ratio obtained from the substrate peptide peak height and the product (phosphorylated substrate peptide) peak height with LabChip EZ Reader II (PerkinElmer). […]

[2] = test system: human acute myeloid leukemia cell line MV4-11 cells; assay: Proliferation inhibition, MV4-11 cells (CellTiter-Glo); format: cell-based; conditions: MV4-11, 72 h, 3 days culture
Procedure: MV4-11 is a cell line originated from human acute myeloid leukemia and the BTK expression has been confirmed (Mol. Cell Proteomics. 2009; 8(7):1751-1764). The human acute myeloid leukemia cell line MV4-11 cells (American Type Culture Collection, CRL-9591) cultured in an Iscove's Modified Dulbecco's Medium (Sigma) contain […] 10% bovine serum were seeded into 96 well plates. On the next day, DMSO solution of the test compound B at final concentrations from 1 nM to 10 μM or only DMSO (DMSO group) were added thereto to culture the cells at 37° C. in 5% CO2 for 3 days. Thereafter, the cell number was measured using a cell counting reagent (CellTiter-Glo (registered trademark) Luminescent Cell Viability Assay (Promega)). The cell proliferation inhibition rate was calculated as the measured value in the DMSO group set as 0% inhibition and the measured value in the well only with the medium on which the cells have not been seeded set as 100% inhibition.

[3] = target: BTK kinase (Homo sapiens, UniProt Q06187); assay: BTK kinase inhibitory activity (QSS Assist BTK_MSA kit); format: biochemical; conditions: 30 min preincubation, ATP 1 mM, concentration as compound A free form
BTK kinase, sequence (Q06187 whole entry): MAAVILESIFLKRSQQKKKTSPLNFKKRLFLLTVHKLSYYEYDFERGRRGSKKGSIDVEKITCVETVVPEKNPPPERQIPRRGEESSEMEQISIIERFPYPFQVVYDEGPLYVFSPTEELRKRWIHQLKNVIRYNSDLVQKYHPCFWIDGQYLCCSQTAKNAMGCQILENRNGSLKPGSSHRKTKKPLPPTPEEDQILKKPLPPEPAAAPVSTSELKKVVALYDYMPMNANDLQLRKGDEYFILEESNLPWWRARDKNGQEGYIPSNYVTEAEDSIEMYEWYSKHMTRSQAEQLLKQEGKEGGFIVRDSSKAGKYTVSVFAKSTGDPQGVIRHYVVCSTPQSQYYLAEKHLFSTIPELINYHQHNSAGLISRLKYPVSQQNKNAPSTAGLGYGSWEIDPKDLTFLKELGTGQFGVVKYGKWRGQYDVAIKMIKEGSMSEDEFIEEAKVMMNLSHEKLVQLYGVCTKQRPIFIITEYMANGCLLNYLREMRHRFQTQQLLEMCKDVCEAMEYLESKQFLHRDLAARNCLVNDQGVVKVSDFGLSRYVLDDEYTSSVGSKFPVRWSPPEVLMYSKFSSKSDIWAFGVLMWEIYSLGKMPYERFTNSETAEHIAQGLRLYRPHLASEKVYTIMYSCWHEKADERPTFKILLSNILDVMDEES
Procedure: The BTK kinase inhibitory activity was evaluated using QSS Assist BTK_MSA kit (Carna Bioscience).
as §1, with “the final” for “the test”, “addition, BTK” for “addition, JAK3”
as §2, with “BTK” for “JAK3”, “left to undergo a reaction” for “incubated”, “1000 nM,” for “1 μM,”

IC50 [1]: 0.44 nM | IC50 [2]: 10 nM | IC50 [3]: 0.17 nM
Compound: C=CC(=O)N1CC[C@@H](Oc2nc(Nc3ccc(N4CCC(N5CCN(C)CC5)CC4)cc3)c(C(N)=O)nc2CC)C1 [test compound B, 5-{[(3R)-1-acryloylpyrrolidin-3-yl]oxy}-6-ethyl-3-({4-[4-(4-methylpiperazin-1-yl)piperidin-1-yl]phenyl}amino)pyrazine-2-carboxamide monomethanesulfonate]
